This is an account of results in US20240398737A1, “FUNCTIONALIZED LONG-CHAIN HYDROCARBON MONO- AND DI-CARBOXYLIC ACIDS AND DERIVATIVES THEREOF, AND THEIR USE FOR THE PREVENTION OR TREATMENT OF DISEASE” (Espervita Therapeutics, Inc., priority 2021, published 2024).

The target of one data set is c-Kit (Homo sapiens (Human), UniProt P10721). Kind of data set: Wild type kinase screen: c-Kit. The class given is biochemical. The settings on record: compound at 10 μM, 10 μM ATP, Data 1 and Data 2 duplicates.
The target of a further data set is RIPK4 (Homo sapiens (Human), UniProt P57078). Kind of data set: Wild type kinase screen: RIPK4. The data set is classed as biochemical. The settings on record: compound at 10 μM, 10 μM ATP, Data 1 and Data 2 duplicates.
Another data set deals with LIMK1 (Homo sapiens (Human), UniProt P53667). As to the kind of experiment: Wild type kinase screen: LIMK1. The data set is classed as biochemical. The settings on record: compound at 10 μM, 10 μM ATP, Data 1 and Data 2 duplicates.
Another data set concerns the target MLCK/MYLK (Homo sapiens (Human), UniProt Q15746). Kind of data set: Wild type kinase screen: MLCK/MYLK. The settings on record: compound at 10 μM, 10 μM ATP, Data 1 and Data 2 duplicates. The data set is classed as biochemical.
In a further data set the target is DDR2 (Homo sapiens (Human), UniProt Q16832). As to the kind of experiment: Wild type kinase screen: DDR2. The data set is classed as biochemical. The settings on record: compound at 10 μM, 10 μM ATP, Data 1 and Data 2 duplicates.
The target of another data set is Human ACC1 (Homo sapiens (Human), UniProt Q13085). As to the kind of experiment: ACC1 enzymatic assay (ADP-Glo). The class given is biochemical. The arrangement: key to Compound IC50 (M) ACC1: *: No detectable inhibition or compound activity. Conditions: recombinant human ACC1 5 nM; 10 concentrations from 300 μM; Runs 1-3. As for the experimental part:
(§1) Human ACC1 (Cat #50202 Lot #120830) and ACC2 (Cat #50201 Lot #160217) were obtained from BPS Biosciences, San Diego, CA 92121. Human ACC1 had C-terminal flag and His-tags with a MW of 270 KDa after purification from Baculovirus infected Sf9 cell expression system and came as a solution in 50 mM Tris-HCl, pH 8.0, 500 mM NaCl, 10% glycerol, 1 mM DTT, 100 μg/ml FLAG peptide with 70% purity. The stock concentration was 0.25 mg/ml corresponding to 0.926 μM. Human ACC2 was also purified from Baculovirus infected Sf9 expression system. […] The stock concentration was 0.1 mg/ml corresponding to 0.36 μM. The assay buffer for measuring the activity of ACC contained: 30 mM HEPES (pH 7.4), 2 mM MgCl2, 0.01% Brij35, 2 mM DTT, 1% DMSO (solvent for compound). For ACC1 and ACC2 assays, the following concentrations of substrate and cofactors were used: 12 mM NaHCO3, 10 μM acetyl CoA, 10 μM ATP, and 2 mM K-citrate. The recombinant human enzyme was used at 5 nM for ACC1 and 1 nM for ACC2. In brief, enzyme alone in the above buffer without substrate was used for background. All test materials were dissolved in 100% DMSO using acoustic technology (Echo550). The prepared solution was preincubated for 15 min followed by the addition of 5 μL/well of ADP standard. ATP was then added to start the reaction. The assay contents were spun and briefly shaken followed by incubation at room temperature for 1 h. At the end of completion of assay, 5 μL of ADP-Glo was added to each well to stop the reaction. The contents were mixed, spun and incubated at room temperature for 40 min followed by the addition of 10 μL/well of ADP detection reagent. The contents were spun, mixed and covered with plastic to measure luminescence. […] The light generated, measured in a luminometer, correlates to the amount of ADP generated in the ACC assay, which is indicative of ACC activity.
(§2) The enzyme concentrations for ACC1 and ACC2 were 5 nM and 1 nM, respectively.
Data represent nM or μM ADP produced, % Activity (relative to no inhibitor controls), and curve fits were performed by GraphPad Prism software. […]

The next data set addresses Aurora B (Homo sapiens (Human), UniProt Q96GD4). Kind of data set: Wild type kinase screen: Aurora B. The class given is biochemical. The settings on record: compound at 10 μM, 10 μM ATP, Data 1 and Data 2 duplicates.
For a further data set, the target named is Human ACC2 (Homo sapiens (Human), UniProt O00763). As to the kind of experiment: ACC2 enzymatic assay (ADP-Glo). The data set is classed as biochemical. The arrangement: key to Compound IC50 (M) ACC2: *: No detectable inhibition or compound activity. The settings on record: recombinant human ACC2 1 nM; 10 concentrations from 300 μM; Runs 1-3. As for the experimental part:
as §1, §2
Data represent nM or μM ADP produced, % Activity (relative to no inhibitor controls), and curve fits were performed by GraphPad Prism software. The IC50 concentration-response curves were generated for both the ACC1 and ACC2 assays using recombinant human ACC.

A short description of data set [1]: Toxicokinetics in female rats (4-day oral gavage study, Day 1). Conditions: female rat plasma; for Dose proportionality of the increases in mean Cmax and AUC0-24: 100 to 300 mg/kg/day; for Cmax / Tmax / AUC(0-t): Wistar Han (RccHan:WIST); for Cmax / Tmax / AUC(0-t) / AUC0-24 (h*ng/mL): Day 1; for AUC(0-t): read-out: AUC0-24. The data set is classed as in vivo. The procedure: Dosing Solutions. The dosing solutions of Compound I-1 or Compound I-32 were prepared as follows: a 60-mg/mL stock solution was prepared for Compound I-1 or Compound I-32 by dissolving Compound I-1 or Compound I-32 in DI water. Two molar equivalents of NaOH was added for every 1 mole of Compound I-1 or Compound I-32 (1.1 μL of 5N NaOH was added for every mg of Compound I-32 or Compound I-1). The pH of the stock solution for Compound I-1 or Compound I-32 was adjusted to achieve a final pH of 8.2 to 8.6. The resultant stock formulations were further diluted with vehicle to achieve the 30 mg/mL concentration. The 30-mg/mL formulations were diluted with control article to achieve the 10-mg/mL concentration. All dilution calculations were based on the nominal concentration of the stock solution. Formulations of Compound I-1 or Compound I-32 were prepared on the day of dosing were stored at room temperature (15 to 30° C.) and used within 8 hours of preparation completion. The control was 1.5% (w/v) carboxymethyl cellulose+0.2% (v/v) Tween 20 in DI water for as Group 1 formulations. The vehicle used for Compound I-1 and Compound I-32 formulations was 3% (w/v) carboxymethyl cellulose+0.4% (v/v) Tween 20 in DI water.
Bioanalytical and Toxicokinetic Analyses. Blood samples (approximately 0.3 mL) were collected from nonfasted toxicokinetic animals via a jugular vein on Day 1 of the dosing phase, as indicated in the following table. Samples were collected predose and approximately 1, 2, 4, and 24 hours postdose.
Blood was collected into tubes containing potassium (K2) EDTA as the anticoagulant. Samples were maintained on chilled cryoracks and were centrifuged within 1 hour of collection. Plasma was harvested into two approximately equal aliquots and stored on dry ice until placed in a freezer, set to maintain −60 to −80° C., until analyzed. Plasma samples were analyzed for Compound I-1 and Compound I-32 content using a generic Tier 1 qualified liquid chromatography-tandem mass spectrometry (LC-MS/MS) method.
In-Life Phase. Animals were dosed once daily for up to 4 days via oral gavage at a volume of 10 mL/kg. Animals in Group 2 and 3 were administered Compound I-1. Animals in Group 4 and 5 were administered Compound I-32. The control article for Group 1 was 1.5% (w/v) carboxymethyl cellulose+0.2% (v/v) Tween 20 in deionized (DI) water. The vehicle used to prepare Compound I-1 and Compound I-32 formulations was 3% (w/v) carboxymethyl cellulose+0.4% (v/v) Tween 20 in DI water.

Like-named read-outs stand apart in the source and are kept apart here.

Human ACC2, sequence (O00763 whole entry): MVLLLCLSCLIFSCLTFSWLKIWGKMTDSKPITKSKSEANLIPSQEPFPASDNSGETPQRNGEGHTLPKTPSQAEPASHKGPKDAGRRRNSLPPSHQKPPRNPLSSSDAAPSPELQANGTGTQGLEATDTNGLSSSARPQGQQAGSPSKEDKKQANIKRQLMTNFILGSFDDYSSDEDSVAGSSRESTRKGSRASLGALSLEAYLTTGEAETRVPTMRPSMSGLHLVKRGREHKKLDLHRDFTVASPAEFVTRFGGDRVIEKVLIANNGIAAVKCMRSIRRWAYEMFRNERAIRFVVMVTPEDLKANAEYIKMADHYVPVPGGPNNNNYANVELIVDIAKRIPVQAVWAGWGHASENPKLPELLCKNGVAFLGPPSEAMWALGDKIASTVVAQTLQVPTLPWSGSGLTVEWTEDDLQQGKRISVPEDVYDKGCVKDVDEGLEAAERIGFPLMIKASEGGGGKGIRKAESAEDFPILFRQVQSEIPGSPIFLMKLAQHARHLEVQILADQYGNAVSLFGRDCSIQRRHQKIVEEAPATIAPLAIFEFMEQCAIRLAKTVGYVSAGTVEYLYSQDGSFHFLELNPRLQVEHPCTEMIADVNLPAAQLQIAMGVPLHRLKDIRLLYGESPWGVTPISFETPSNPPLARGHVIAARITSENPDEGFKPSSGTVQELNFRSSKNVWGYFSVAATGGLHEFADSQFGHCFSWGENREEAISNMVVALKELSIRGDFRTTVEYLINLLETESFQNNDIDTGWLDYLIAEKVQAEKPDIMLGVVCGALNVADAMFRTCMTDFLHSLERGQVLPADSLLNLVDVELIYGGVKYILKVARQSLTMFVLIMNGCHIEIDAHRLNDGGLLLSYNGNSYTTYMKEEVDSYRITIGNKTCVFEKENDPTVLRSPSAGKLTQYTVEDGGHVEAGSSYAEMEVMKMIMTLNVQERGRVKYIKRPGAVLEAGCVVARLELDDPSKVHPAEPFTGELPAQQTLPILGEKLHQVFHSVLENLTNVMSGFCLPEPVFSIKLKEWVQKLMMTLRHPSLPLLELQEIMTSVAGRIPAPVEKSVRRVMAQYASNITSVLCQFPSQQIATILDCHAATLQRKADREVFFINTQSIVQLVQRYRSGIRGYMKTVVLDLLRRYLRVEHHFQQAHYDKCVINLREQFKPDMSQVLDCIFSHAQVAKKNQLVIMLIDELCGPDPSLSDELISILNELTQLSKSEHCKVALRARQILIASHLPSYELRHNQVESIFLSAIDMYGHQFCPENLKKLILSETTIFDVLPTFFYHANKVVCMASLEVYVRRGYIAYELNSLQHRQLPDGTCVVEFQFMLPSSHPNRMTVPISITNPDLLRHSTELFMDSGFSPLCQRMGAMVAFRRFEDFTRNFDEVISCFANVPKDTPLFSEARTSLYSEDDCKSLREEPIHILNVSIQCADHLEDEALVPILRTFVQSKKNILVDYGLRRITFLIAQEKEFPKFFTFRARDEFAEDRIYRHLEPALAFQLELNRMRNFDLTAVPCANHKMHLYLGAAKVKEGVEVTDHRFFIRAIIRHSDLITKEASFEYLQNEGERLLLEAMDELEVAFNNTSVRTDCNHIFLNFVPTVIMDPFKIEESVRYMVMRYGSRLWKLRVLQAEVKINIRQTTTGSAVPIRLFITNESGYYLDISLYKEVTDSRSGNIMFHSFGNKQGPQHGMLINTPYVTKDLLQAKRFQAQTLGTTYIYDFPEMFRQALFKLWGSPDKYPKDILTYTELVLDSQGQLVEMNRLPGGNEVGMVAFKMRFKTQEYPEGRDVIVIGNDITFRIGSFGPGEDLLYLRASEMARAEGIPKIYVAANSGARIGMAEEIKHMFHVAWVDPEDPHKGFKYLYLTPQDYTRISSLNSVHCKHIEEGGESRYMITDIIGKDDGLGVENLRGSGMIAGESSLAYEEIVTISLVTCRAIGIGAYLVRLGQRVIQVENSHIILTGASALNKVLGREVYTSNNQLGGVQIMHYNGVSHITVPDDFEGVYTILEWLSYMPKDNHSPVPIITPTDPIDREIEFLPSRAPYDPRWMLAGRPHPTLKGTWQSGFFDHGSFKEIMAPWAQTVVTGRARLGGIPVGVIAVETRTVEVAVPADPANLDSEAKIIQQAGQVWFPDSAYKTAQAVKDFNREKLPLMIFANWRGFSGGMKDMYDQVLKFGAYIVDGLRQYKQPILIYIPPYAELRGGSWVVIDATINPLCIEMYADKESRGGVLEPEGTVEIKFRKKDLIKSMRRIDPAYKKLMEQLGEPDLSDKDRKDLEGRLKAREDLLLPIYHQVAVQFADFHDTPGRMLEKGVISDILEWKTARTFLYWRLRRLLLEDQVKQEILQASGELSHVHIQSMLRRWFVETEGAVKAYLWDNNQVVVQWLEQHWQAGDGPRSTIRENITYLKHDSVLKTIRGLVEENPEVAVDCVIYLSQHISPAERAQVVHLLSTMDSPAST
DDR2, sequence (Q16832 22-855, species assumed): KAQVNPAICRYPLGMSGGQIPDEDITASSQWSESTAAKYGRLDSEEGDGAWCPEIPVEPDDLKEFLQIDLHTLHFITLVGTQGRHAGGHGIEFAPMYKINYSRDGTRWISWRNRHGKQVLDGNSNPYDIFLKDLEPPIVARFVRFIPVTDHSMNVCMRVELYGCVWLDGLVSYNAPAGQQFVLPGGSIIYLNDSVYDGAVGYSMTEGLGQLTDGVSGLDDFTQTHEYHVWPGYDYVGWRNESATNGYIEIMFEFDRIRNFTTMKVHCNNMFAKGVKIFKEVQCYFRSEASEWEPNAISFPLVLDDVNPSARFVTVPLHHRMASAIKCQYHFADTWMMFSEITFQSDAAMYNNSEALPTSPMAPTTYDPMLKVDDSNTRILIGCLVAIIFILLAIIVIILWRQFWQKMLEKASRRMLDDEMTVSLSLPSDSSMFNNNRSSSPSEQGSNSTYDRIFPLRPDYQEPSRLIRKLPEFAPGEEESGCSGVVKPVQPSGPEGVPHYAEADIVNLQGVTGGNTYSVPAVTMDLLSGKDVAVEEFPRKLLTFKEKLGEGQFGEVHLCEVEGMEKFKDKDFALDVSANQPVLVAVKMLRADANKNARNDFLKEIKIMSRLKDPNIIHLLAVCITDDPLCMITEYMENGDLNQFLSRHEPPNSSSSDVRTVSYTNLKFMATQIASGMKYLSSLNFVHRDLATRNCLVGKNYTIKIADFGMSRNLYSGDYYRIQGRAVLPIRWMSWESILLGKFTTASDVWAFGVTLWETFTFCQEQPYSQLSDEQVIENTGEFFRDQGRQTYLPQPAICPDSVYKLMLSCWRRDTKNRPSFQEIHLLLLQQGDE
LIMK1, sequence (P53667 whole entry, species assumed): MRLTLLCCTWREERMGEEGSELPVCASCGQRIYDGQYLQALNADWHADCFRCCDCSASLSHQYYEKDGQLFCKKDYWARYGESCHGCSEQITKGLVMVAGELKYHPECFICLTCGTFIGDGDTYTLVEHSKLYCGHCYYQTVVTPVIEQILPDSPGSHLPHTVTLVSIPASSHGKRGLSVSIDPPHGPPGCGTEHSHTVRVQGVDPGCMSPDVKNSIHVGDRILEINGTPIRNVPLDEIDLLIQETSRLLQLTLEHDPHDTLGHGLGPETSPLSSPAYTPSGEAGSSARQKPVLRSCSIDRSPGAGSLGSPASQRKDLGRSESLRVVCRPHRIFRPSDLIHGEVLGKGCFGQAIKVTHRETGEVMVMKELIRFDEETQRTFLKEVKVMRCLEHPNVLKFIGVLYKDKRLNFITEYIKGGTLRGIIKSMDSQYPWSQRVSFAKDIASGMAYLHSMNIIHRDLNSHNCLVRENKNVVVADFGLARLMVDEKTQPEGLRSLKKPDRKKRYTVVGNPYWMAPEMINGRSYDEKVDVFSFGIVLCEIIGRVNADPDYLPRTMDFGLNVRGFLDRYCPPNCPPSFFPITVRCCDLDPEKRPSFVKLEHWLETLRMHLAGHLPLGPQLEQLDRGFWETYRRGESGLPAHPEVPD
c-Kit, sequence (P10721 26-976): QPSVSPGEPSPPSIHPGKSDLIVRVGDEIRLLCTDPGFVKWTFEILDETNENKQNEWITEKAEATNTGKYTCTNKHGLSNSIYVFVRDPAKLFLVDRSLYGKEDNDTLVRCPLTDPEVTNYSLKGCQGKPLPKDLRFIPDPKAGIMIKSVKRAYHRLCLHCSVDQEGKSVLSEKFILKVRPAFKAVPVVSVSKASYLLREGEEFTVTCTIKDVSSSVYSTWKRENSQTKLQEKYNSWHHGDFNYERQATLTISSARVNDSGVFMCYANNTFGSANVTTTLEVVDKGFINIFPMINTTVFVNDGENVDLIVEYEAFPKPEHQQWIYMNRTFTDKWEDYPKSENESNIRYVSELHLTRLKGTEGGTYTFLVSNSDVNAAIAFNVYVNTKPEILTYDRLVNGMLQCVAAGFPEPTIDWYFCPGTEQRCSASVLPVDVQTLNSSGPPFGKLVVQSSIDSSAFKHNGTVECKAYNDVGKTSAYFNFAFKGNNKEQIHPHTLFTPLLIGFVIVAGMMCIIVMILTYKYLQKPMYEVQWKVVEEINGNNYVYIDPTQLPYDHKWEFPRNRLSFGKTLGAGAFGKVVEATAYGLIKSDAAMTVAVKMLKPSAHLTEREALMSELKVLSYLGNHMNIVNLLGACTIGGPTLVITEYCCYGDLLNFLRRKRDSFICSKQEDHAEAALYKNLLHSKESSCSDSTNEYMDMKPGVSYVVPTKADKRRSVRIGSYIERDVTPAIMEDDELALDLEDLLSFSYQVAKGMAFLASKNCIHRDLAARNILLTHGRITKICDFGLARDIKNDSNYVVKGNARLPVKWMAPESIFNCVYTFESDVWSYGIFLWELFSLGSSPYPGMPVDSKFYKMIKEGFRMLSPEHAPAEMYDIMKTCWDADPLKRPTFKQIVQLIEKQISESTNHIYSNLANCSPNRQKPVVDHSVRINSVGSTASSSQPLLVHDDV

As for `CC(C)(CCCCc1ccc(CCCCC(C)(C)C(=O)O)cc1)C(=O)O` [Compound I-1, 6-[4-(5-carboxy-5-methylhexyl)-phenyl]-2,2-dimethylhexanoic acid], the “% Enzyme Activity (relative to DMSO controls)” value on c-Kit amounted to 81.06%; at RIPK4, 42.78%; on LIMK1 it was 71.9%; at MLCK/MYLK, 106.34%; on DDR2 it was 69.84%; on Aurora B, 63.21%. Further, at Human ACC1, the “Compound IC50 (M) ACC1” value was “*”. Moreover, on Human ACC2, the “Compound IC50 (M) ACC2” value is listed as “*”. The “Dose proportionality of the increases in mean Cmax and AUC0-24” value in data set [1] was “less than dose proportional”. Further, the Cmax in data set [1] (100 mg/kg/day oral gavage) amounted to 415 µg/mL; in data set [1] (300 mg/kg/day oral gavage), 787 µg/mL. Moreover, the figures for the time of peak concentration (Tmax) in data set [1] (100 mg/kg/day oral gavage) and in data set [1] (300 mg/kg/day oral gavage) were 2 h and 1 h, respectively. Moreover, the figures for the AUC(0-t) in [1] (100 mg/kg/day oral gavage) and in [1] (300 mg/kg/day oral gavage) were 5460 µg·h/mL and 7520 µg·h/mL, respectively. Further, the “AUC0-24 (h*ng/mL)” value in [1] (100 mg/kg/day oral gavage) is reported as 5,460,000 h*ng/mL.
As for `CC(C)(CCCCc1cccc(CCCCC(C)(C)C(=O)O)c1)C(=O)O` [Compound I-32, 6-[3-(5-carboxy-5-methylhexyl)-phenyl]-2,2-dimethylhexanoic acid], the “% Enzyme Activity (relative to DMSO controls)” value on c-Kit is given as 71.52%; at RIPK4, 42.74%; at LIMK1, 71.71%; on MLCK/MYLK, 103.59%; at DDR2 it was 85.83%; on Aurora B, 67.29%. For the same compound, the “Compound IC50 (M) ACC2” value at Human ACC2 is reported as “*”. For the same compound, the “Dose proportionality of the increases in mean Cmax and AUC0-24” value in data set [1] is “approximately dose proportional”. In addition, the Cmax in data set [1] (100 mg/kg/day oral gavage) amounted to 142 µg/mL; in [1] (300 mg/kg/day oral gavage), 406 µg/mL. The time of peak concentration (Tmax) was found to be 2 h in [1] (100 mg/kg/day oral gavage) and 4 h in data set [1] (300 mg/kg/day oral gavage). In addition, the values for the AUC(0-t) in [1] (100 mg/kg/day oral gavage) and in data set [1] (300 mg/kg/day oral gavage) were 2030 µg·h/mL and 7880 µg·h/mL, respectively. For the same compound, the “AUC0-24 (h*ng/mL)” value in data set [1] (300 mg/kg/day oral gavage) is 7,880,000 h*ng/mL.
